# From patent US11370847B2, “Single domain antibodies directed against intracellular antigens” (Singh Biotechnology, LLC, priority 2014, dated 2022)
# “And” between values parts separate entries of the source, which are not always exact repeats. Equal entries are not always repeated. Where two headings read alike, the source gives them in different places.
# Key:
# PANC-1 xenograft = conditions: for Tumor Measurements (mm^3), group Mean / Individual Tumor Measurements (mm^3): Group 2: 500 μg/kg bw IP QD×14; for Individual Tumor Measurements (mm^3): single animals, listed as anti-STAT3 bacterial VHH13
# U87MG cells = experiment: MTT proliferation assay, U87MG; format: cell-based, human; conditions: for % Inhibition (growth): U87mg cells treated for 72 hr.
# endogenous STAT3 = experiment: Immunoprecipitation from cell lines with constitutively activated STAT3; format: binding, human (PANC-1 and DU145) and murine (4T1)
# Procedure: Commercial HeLa cells were also treated with interferon gamma (INFΓ) in order to induce phosphorylated STAT3. The PC-3 STAT3 null cell line was used as a negative control.
# The cells were grown to 50% to 70% confluence, then disrupted in freshly prepared ice-cold lysis buffer as described above for 45 minutes on ice. Lysates were then centrifuged, the supernatant collected, and protein concentration was determined as described above. […] Beads were then washed. Following the final wash, 60 μl of lysis buffer was added, and the resulting supernatant was subject to Western Blot analysis as described in Example 2.
# SIE-luc2P/HEK293 cells = experiment: BCA protein concentration of reporter cells; format: cell-based; conditions: highest concentration (55.8 μg/mL)
# HT1080 cells = experiment: MTT proliferation assay, HT1080; format: cell-based, human; conditions: HT1080, 72 hr
# EBOv (Makon) [1] = conditions: Hela; EBOV (Makona); 48 hours
# MDA-MB-231 cells = experiment: MTT proliferation assay, MDA-MB-231; format: cell-based, human; conditions: MDA-MB-231; for Absorbance: single experiments;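 for all read-outs here: proliferation of cultured human cancer cells read by MTT, with treated groups compared against a vehicle control group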
# DU145 xenograft = experiment: DU145 prostate cancer xenograft model; conditions: SBT-100 5 mg/kg bw i.p. BID×14
# DU145 cells = experiment: MTT proliferation assay, DU145; format: cell-based, human; conditions: 50 μg, single experiments, listed as Anti-STAT3 Bacterial VHH13
# BT474 xenograft = experiment: BT474 human breast tumor xenograft in CB.17 SCID mice; format: in vivo
# [2] = test system: Zika/DAKAR D41525 Senegal strain
# STAT5 = experiment: Biacore 3000 protein binding, STAT5
# VEGF-A = VEGF-A ELISA in ARPE-19 retinal cells; format: cell-based, human; conditions: Experiment 2; for pg VEGF-A per μg protein: single wells
# EBOv (Makon) [3] = conditions: HFF; EBOV (Makona); 48 hours
# PANC-1 cells = experiment: MTT proliferation assay, PANC-1; conditions: SBT-100 100 μg/ml alone, experiment with Gemcitabine Hydrochloride (Biovision #1759), 72 hours
# MDA-MB 231 cells = experiment: Internalization of sdAb, anti-His staining, MDA-MB 231; format: cell-based; conditions: 18 hours after sdAb addition
# Procedure: The next day, the chambers were rinsed with fresh media and STAT3 VHH13 (SEQ ID NO:3) sdAb (diluted 1:10 in media) or TNF-α VHH66 (SEQ ID NO:45) sdAb was added to the chamber. An anti-HIV-1 Reverse Transcriptase (RT) sdAb was used as a negative control.
# The slides were incubated for 18 hours after sdAb addition. The chambers were briefly rinsed with media and fixed in ice-cold methanol for 5-10 min. The chambers were then dried and stained with a fluorescent anti-His tag antibody (1:200) (Novus Biologicals, Littleton, Colo.) for 45 min at room temperature. The slides were rinsed in PBS for 5 minutes and mounted.
# [4] = SB-01 1 mg/kg ip tid × 14 first day 2 doses
substance,measurement,setting,value
"anti-STAT3 VHH13: anti-STAT3 single-domain antibody, SEQ ID NO:3; bacterially produced, referred to as SBT-100",growth inhibition,PANC-1 xenograft; 500 μg/kg bw IP QD×14,no significant growth inhibition
same,mean tumor size (±SE) on day 14 of dosing,PANC-1 xenograft; 500 μg/kg bw IP QD×14,318.74 ± 29.76
same,tumor doubling time,"PANC-1 xenograft; 500 μg/kg bw IP QD×14, control […] days",23.02 days
same,"Tumor Measurements (mm^3), group Mean",PANC-1 xenograft; 2/19,110.58 mm^3
same,"Tumor Measurements (mm^3), group Mean",PANC-1 xenograft; 2/24,149.71 mm^3
same,"Tumor Measurements (mm^3), group Mean",PANC-1 xenograft; 2/27,222.47 mm^3
same,"Tumor Measurements (mm^3), group Mean",PANC-1 xenograft; 3/2,242.11 mm^3
same,"Tumor Measurements (mm^3), group Mean",PANC-1 xenograft; 3/6,318.74 mm^3
same,"Tumor Measurements (mm^3), group Mean",PANC-1 xenograft; 3/10,408.74 mm^3
same,Individual Tumor Measurements (mm^3),PANC-1 xenograft; 2/19,96.31 mm^3 and 89.24 mm^3 and 80.62 mm^3 and 108.03 mm^3 and 77.66 mm^3 and 129.68 mm^3 and 108.99 mm^3 and 123.27 mm^3 and 144.53 mm^3 and 120.96 mm^3 and 112.69 mm^3 and 134.95 mm^3
same,Individual Tumor Measurements (mm^3),PANC-1 xenograft; 2/24,193.71 mm^3 and 90.03 mm^3 and 148.97 mm^3 and 144.14 mm^3 and 116.21 mm^3 and 143.20 mm^3 and 182.30 mm^3 and 171.03 mm^3 and 136.03 mm^3 and 136.48 mm^3 and 144.76 mm^3 and 189.64 mm^3
same,Individual Tumor Measurements (mm^3),PANC-1 xenograft; 2/27,275.06 mm^3 and 112.43 mm^3 and 196.38 mm^3 and 234.46 mm^3 and 313.19 mm^3 and 290.67 mm^3 and 239.00 mm^3 and 223.34 mm^3 and 198.47 mm^3 and 226.43 mm^3 and 167.12 mm^3 and 193.14 mm^3
same,Individual Tumor Measurements (mm^3),PANC-1 xenograft; 3/2,317.53 mm^3 and 125.51 mm^3 and 187.24 mm^3 and 240.39 mm^3 and 290.38 mm^3 and 224.92 mm^3 and 254.64 mm^3 and 226.88 mm^3 and 226.04 mm^3 and 338.06 mm^3 and 225.70 mm^3 and 248.01 mm^3
same,Individual Tumor Measurements (mm^3),PANC-1 xenograft; 3/6,395.37 mm^3 and 189.63 mm^3 and 299.84 mm^3 and 288.75 mm^3 and 411.66 mm^3 and 261.44 mm^3 and 342.19 mm^3 and 248.69 mm^3 and 247.97 mm^3 and 564.71 mm^3 and 223.06 mm^3 and 351.63 mm^3
same,Individual Tumor Measurements (mm^3),PANC-1 xenograft; 3/10,540.66 mm^3 and 235.08 mm^3 and 530.46 mm^3 and 421.61 mm^3 and 197.67 mm^3 and 343.04 mm^3 and 464.00 mm^3 and 324.30 mm^3 and 273.58 mm^3 and 883.81 mm^3 and 326.19 mm^3 and 364.44 mm^3
same,% treatment/control,PANC-1 xenograft; SBT-100 5 mg/kg bw i.p. BID×14,52.79%
same,mean tumor size (±S.E.) at termination (day 28),PANC-1 xenograft; SBT-100 5 mg/kg bw i.p. BID×14,203.02±30.34
same,mean tumor size (±SE) at last day of dosing (Day 14),PANC-1 xenograft; SBT-100 5 mg/kg bw i.p. BID×14,159.03±28.01
same,tumor doubling time,"PANC-1 xenograft; SBT-100 5 mg/kg bw i.p. BID×14, control 18.51 days",35.70 days
same,mean tumor growth inhibition at the end of the study,"PANC-1 xenograft; SBT-100 5 mg/kg bw i.p. BID×14, p=0.35",41.78%
same,% Inhibition (growth),U87MG cells; Dose 50 μg/ml,18%
same,% Inhibition (growth),U87MG cells; Dose 100 μg/ml,51%
same,% Inhibition (growth),U87MG cells; Dose 200 μg/ml,62%
same,IC50,"U87MG cells; U87mg, 72 hr",IC50 = 65 μg/ml
same,% Inhibition,"U87MG cells; U87mg, SBT-100 50 μg/ml, 72 hr",18%
same,% Inhibition,"U87MG cells; U87mg, SBT-100 100 μg/ml, 72 hr",51%
same,% Inhibition,"U87MG cells; U87mg, SBT-100 200 μg/ml, 72 hr",62%
same,binding to Phospho-STAT3,endogenous STAT3; HeLa lysate (interferon gamma treated),bound
same,immunoprecipitation of endogenous STAT3,"endogenous STAT3; PANC-1, DU145 and 4T1 lysates",immunoprecipitated
same,immunoprecipitation in STAT3 null cell line,endogenous STAT3; PC-3 (negative control),No bands
same,decrease in protein,SIE-luc2P/HEK293 cells,approximately 2 fold
same,IC50,HT1080 cells,IC50 = 33 μg/ml
same,EC50,EBOv (Makon) [1],19.02 ug/m
same,EC90,EBOv (Makon) [1],58.72 µg/mL
same,Average Absorbance,MDA-MB-231 cells; 50 μg,0.82
same,Average % Inhibition,"MDA-MB-231 cells; 50 μg (50.0 μg/ml), listed as Anti-STAT3 Bacterial VHH13",32.6%
same,Absorbance,"MDA-MB-231 cells; 50 μg, listed as Anti-STAT3 Bacterial VHH13",0.82 and 0.99 and 0.64
same,Average Absorbance,MDA-MB-231 cells; 100 μg,0.11
same,Absorbance,"MDA-MB-231 cells; 100 μg, listed as Anti-STAT3 Bacterial VHH13",0.07 and 0.12 and 0.14
same,% treatment/control,DU145 xenograft,74.8%
same,mean tumor size (±S.E.) at termination (day 28),DU145 xenograft,601.83±131.51
same,mean tumor size (±SE) at last day of dosing (Day 14),DU145 xenograft,364.14±51.64
same,tumor doubling time,DU145 xenograft; control 14.57 days,18.19 days
same,mean tumor growth inhibition at the end of the study,DU145 xenograft; p=0.29,26.6%
same,Absorbance,DU145 cells,0.68 and 1.2
same,effect on growth of BT474 tumors compared to control,BT474 xenograft; 1 mg/kg ip tid × 14,did not reduce the growth of BT474 tumors in vivo
same,% TGD,BT474 xenograft; [4],22%
same,MTV (n) Day 60,BT474 xenograft; [4],550
same,Median TTE,BT474 xenograft; [4],60.0
same,EC50,[2],11.04 ug/m
same,EC90,[2],48.11 µg/mL
same,binding to STAT5,"STAT5; Biacore 3000, sdAb immobilized",bound
same,Result (binding),"STAT5; Table 50, sdAb immobilized as ligand, analyte STAT5 protein 500 nM",Binding
same,pg VEGF-A per μg protein,"VEGF-A; ARPE-19, 0.1 μg/well, 12 Hr",2.4 pg per μg protein
same,pg VEGF-A per μg protein,"VEGF-A; ARPE-19, 10 μg/well, 24 Hr",4.4 pg per μg protein
same,decrease in VEGF-A,"VEGF-A; ARPE-19, 100 μg/mL, 12 hour treatment",20.1%
same,decrease in VEGF-A,"VEGF-A; ARPE-19, 100 μg/mL, 24 hour treatment",7.5%
same,pg VEGF-A/μg protein as % of the negative control,"VEGF-A; ARPE-19, 100 μg/mL, 48 hours",11%
same,decrease in VEGF-A,"VEGF-A; lower concentrations (10, 1 or 0.1 μg/ml)",not seen
same,EC50,EBOv (Makon) [3],38.36 ug/m
same,EC90,EBOv (Makon) [3],66.43 µg/mL
same,Abs,PANC-1 cells,0.381
same,staining with fluorescent anti-His tag antibody,MDA-MB 231 cells,positive cytoplasmic staining
